{"source": "patent US5216011A", "about": "(priority 1989, dated 1993)", "key": {"[1]": {"assay": "Stability of mitomycin C (5 mg/mL) in polyethylene glycols", "type": "physicochemical"}, "[2]": {"assay": "Solution stability of mitomycin C in non-aqueous solvents (Table V)", "type": "physicochemical", "source_text": "^a All solutions on test in amber vials and nitrogen purged.\n^b The pH of these vehicles was adjusted to 7.0 with citric acid.\n^c Dried over molecular sieve."}, "[3]": {"source_text": "The effect of pretreatment of propylene glycol with sodium bicarbonate and carbon (Darco G-60) was investigated."}, "[4]": {"assay": "Pseudo first-order rate constants for degradation of mitomycin C in neat propylene glycol", "type": "physicochemical", "protocol": "^a Data were taken from Table VI. m:month.\n^b Predicted from 40° C. data."}, "[5]": {"conditions": "neutral pH, unbuffered solution, Ref. 6; cited from earlier work"}, "[6]": {"conditions": "cited from earlier work; for stable for: 20-40 mcg/mL, room temperature; for degradation product: aqueous"}, "[7]": {"assay": "Predicted stability of mitomycin C at different temperatures (aqueous degradation kinetics)"}, "[8]": {"assay": "Apparent pH of propylene glycol before and after sodium bicarbonate treatment", "type": "physicochemical", "conditions": "after 1:10 dilution with water", "protocol": "Into a 50 mL Erlenmeyer flask containing 25 mL of neat propylene glycol was added 25 mg sodium bicarbonate. The mixture was stirred for 10 minutes. After standing for 30 minutes, the mixture was then filtered through a Millex-SR filter (Millipore Corp., P/N#SLSR025NS) to remove undissolved sodium bicarbonate. Apparent pH of propylene glycol before and after the treatment (after 1:10 dilution with water) was measured and were 6.5 and 8.4, respectively."}}, "note": "Like-named read-outs stand apart in the source and are kept apart here."}
{"smiles": "CO[C@@]12[C@H](COC(N)=O)C3=C(C(=O)C(C)=C(N)C3=O)N1C[C@@H]1N[C@@H]12", "note": "[mitomycin C]", "values": [{"measurement": "Stability", "setting": "[1]; PEG 200, 300 and 400", "value": "poor and variable stability"}, {"measurement": "Effect of purging with nitrogen on stability", "setting": "[1]; PEG 400", "value": "improved stability"}, {"measurement": "Effect of pH adjustment to 6.2 on stability", "setting": "[1]; PEG 400, sodium glycodeoxycholate", "value": "unsuccessful"}, {"measurement": "Effect of propyl gallate on stability", "setting": "[1]; PEG, nitrogen purged solutions", "value": "not to improve stability"}, {"measurement": "Stability", "setting": "[2]; 2-pyrrolidone (2-Pyr)", "value": "Slightly lower stability"}, {"measurement": "Stability", "setting": "[2]; DMA, NMP and PG", "value": "Excellent stability"}, {"measurement": "Stability", "setting": "[2]; ethanol", "value": "surprisingly poor"}, {"measurement": "Effect of addition of 2% water on stability", "setting": "[2]; propylene glycol, vs neat solvent", "value": "appeared to increase stability"}, {"measurement": "Effect of air vs. nitrogen on stability", "setting": "[3]; PG and PG/water, 25° C.", "value": "more stable in the presence of nitrogen"}, {"measurement": "Stability", "setting": "[3]; all PG formulations, 25° C. and 4° C.", "value": "Excellent stability"}, {"measurement": "Stability", "setting": "[3]; glycerin", "value": "poor stability"}, {"measurement": "Effect of 5% and 10% water on stability", "setting": "[3]; propylene glycol", "value": "do not adversely affect, and may actually improve, mitomycin C stability"}, {"measurement": "Effect of pretreatment of propylene glycol with carbon (Darco G-60) on stability", "setting": "[3]; propylene glycol", "value": "did not significantly improve mitomycin C stability"}, {"measurement": "Effect of pretreatment of propylene glycol with sodium bicarbonate on stability", "setting": "[3]; propylene glycol", "value": "significantly improved"}, {"measurement": "Effect of three antioxidants on stability", "setting": "[3]; propylene glycol, vs control solution", "value": "do not significantly improve mitomycin C stability"}, {"measurement": "Arrhenius activation energy, Ea", "setting": "[4]; 4-40° C.", "value": 16.5, "unit": "kcal/mol"}, {"measurement": "time for which potency will remain greater than 90% of initial", "setting": "[4]; 4° C.", "value": "more than 30 months"}, {"measurement": "t90", "setting": "[4]; 4 °C", "value": 38, "unit": "months"}, {"measurement": "10^2 ko (pseudo first-order rate constant)", "setting": "[4]; 4 °C (277 K), m: month", "value": 0.276, "unit": "m^-1"}, {"measurement": "t90 predicted from 40° C. data", "setting": "[4]; 4 °C, m: month", "value": 39, "unit": "m"}, {"measurement": "t90", "setting": "[4]; 25 °C", "value": 3.9, "unit": "months"}, {"measurement": "10^2 ko (pseudo first-order rate constant)", "setting": "[4]; 25 °C (298 K), m: month", "value": 2.69, "unit": "m^-1"}, {"measurement": "t90", "setting": "[4]; 40 °C", "value": 37, "unit": "days"}, {"measurement": "10^2 ko (pseudo first-order rate constant)", "setting": "[4]; 40 °C (313 K), m: month", "value": 8.40, "unit": "m^-1"}, {"measurement": "E act (activation energy for decomposition)", "setting": "[5]", "value": 19.4, "unit": "kcal/mol"}, {"measurement": "stable for", "setting": "[6]; 0.9% sodium chloride injection", "value": 12, "unit": "h"}, {"measurement": "stable for", "setting": "[6]; 5% dextrose injection", "value": 3, "unit": "h"}, {"measurement": "pH of maximum stability", "setting": "[6]; aqueous solutions", "value": "7-8"}, {"measurement": "degradation product", "setting": "[6]; pH above 7", "value": "hydrolyzed to 7-hydroxymitosane"}, {"measurement": "degradation product", "setting": "[6]; pH below 7", "value": "converted to 1-hydroxy-2,7-diaminomitosanes"}, {"measurement": "time to loss of 10% potency", "setting": "[6]; in water at 25° C.", "value": "about 40 days"}, {"measurement": "stable for", "setting": "[6]; sodium/lactate injection", "value": 24, "unit": "h"}, {"measurement": "t50", "setting": "[7]; 5° C., predicted", "value": 7.6, "unit": "y"}, {"measurement": "t90", "setting": "[7]; 5° C., predicted", "value": 420, "unit": "days"}, {"measurement": "decomposition rate constant", "setting": "[7]; 5° C., predicted from E act", "value": "1.04e-05", "unit": "h⁻¹"}, {"measurement": "predicted t90", "setting": "[7]; 5° C., unbuffered aqueous solution", "value": "about one"}, {"measurement": "t50", "setting": "[7]; 25° C.", "value": 0.7, "unit": "y"}, {"measurement": "t90", "setting": "[7]; 25° C.", "value": 40, "unit": "days"}, {"measurement": "decomposition rate constant", "setting": "[7]; 25° C., 0.05M phosphate buffer, pH 7.43", "value": 0.00011, "unit": "h⁻¹"}, {"measurement": "time until potency falls to 90% of its original value", "setting": "[7]; in water, 25° C.", "value": 40, "unit": "days"}]}
{"smiles": "CC(O)CO", "note": "(stereo not drawn) [propylene glycol]", "values": [{"measurement": "Apparent pH after treatment", "setting": "[8]; after sodium bicarbonate treatment", "value": 8.4}, {"measurement": "Apparent pH before treatment", "setting": "[8]; before sodium bicarbonate treatment", "value": 6.5}]}
